Experimental data published in patent US7129271B2, “Compounds for pest control and methods for their use” (The United States of America as represented by the …, priority 2000, dated 2006).
≈ marks a conversion by molar mass, not a printed value. Like-named read-outs stand apart in the source and are kept apart here.

Assays:
Ae. aegypti adults = experiment: Mosquito bottle bioassay (Example 9); assay type: in vivo
Procedure: Mosquito Colonies. Aedes aegypti adult mosquitoes were obtained from an existing colony at the Centers for Disease Control and Prevention (CDC), Division of Vector-Borne Infectious Diseases (DVBID), Fort Collins, Colo. This colony has been maintained for over fifteen years with no known history of exposure to pesticides. Mosquitoes were reared at 28° C., 85% RH, and a 14:10 h (light:dark) cycle. Larvae were grown in de-ionized water and fed ground liver powder solution ad libitum. Fourth instars were removed and placed in emergence cages, and adults were fed a 2% sucrose solution until assayed. Adults were exposed to test products at 4–7 d after emergence.
(§1) Mosquit Bioassay. Adult mosquitoes were tested using the bottle bioassay method of Brogden, W. G., and McAllister, J. C., J. Am. Mosq. Control Assoc. 14:159–64 (1998), with minor modifications. Natural product extracts were two-fold serially diluted for a total of 8 concentrations ranging from 0.002% to 0.25% in 1.5 ml of acetone. Individual dilutions were added to 250 ml Wheaton glass bottles and capped. Bottles were manipulated to evenly coat all inner surfaces. The caps were removed and bottles were allowed to air-dry overnight. Once bottles were completely dry, 10–50 adult mosquitoes were aspirated into the bottles. Mosquitoes were held in the bottles for 24 h at 23° C. and 85% RH. Morbidity and mortality were recorded at 15, 30, 45, and 60 min and 24 hour intervals. One bottle for each replicate was treated with acetone only and served as a control. The dose-mortality data was evaluated with probit analysis, using the LdP Line software, to determine LC50 and LC90 values.

I. scapularis nymphs = experiment: Tick bioassay, modified disposable pipette method, treated vials (Example 9); assay type: in vivo, Ixodes scapularis
Procedure: Tick Colonies. […] There was no known pesticide used at this location. Ticks were maintained at 21° C., 90% RH, and received a 16:8 h (light:dark) cycle as described in […]. Med. […] Tick and Flea Bioassays. […] A control treated with acetone only was run with each series. Tick and flea susceptibility was evaluated using a modified disposable pipette method. See, Barnard, D. R., et al., J. Econ. […] Three to 4 holes were made in the plastic cap to allow for air exchange. Nymphal ticks and adult fleas were then placed directly into the vials using forceps. Vials containing ticks or fleas were placed in desiccators for 24 h at 21° C. and 90% RH. […] For each time point, if ticks were incapable of movement, maintaining normal posture, leg coordination, ability to right themselves, or any signs of life, they were considered moribund or dead.

X. cheopis adults = experiment: Flea bioassay, treated vials (Example 9); assay type: in vivo
Procedure: Flea Colonies. Adult X. cheopis fleas (1–3 wk old) were obtained from a colony founded more than eight years ago using adults received from Tom Schwan, Rocky Mountain Laboratories, Hamilton, Mont. The area from which these original adult fleas were obtained, and the resulting colony, have no known histories of pesticide exposure.
(§2) Tick and Flea Bioassays. Concentrations of the compounds were prepared by 2-fold serial dilutions of a 0.5% (wt:vol) solution of the extracts in acetone. […] A control treated with acetone only was run with each series. Tick and flea susceptibility was evaluated using a modified disposable pipette method. See, Barnard, D. R., et al., J. Econ. Entomol.
(§3) The inner surface of 2-dram friction cap vials were treated with the compound/acetone solution, or acetone only as a control, and left to air-dry overnight. Three to 4 holes were made in the plastic cap to allow for air exchange. Nymphal ticks and adult fleas were then placed directly into the vials using forceps. Vials containing ticks or fleas were placed in desiccators for 24 h at 21° C. and 90% RH. Morbidity and mortality was recorded at 1, 2, 4, 8, and 24 h after initial exposure.

[1] = tested on: nymphal Ixodes scapularis; experiment: Treated-vial biocidal screening, 2% acetone solutions (Example 2); assay type: in vivo
Procedure: (§4) Samples of the compounds listed below Were obtained from Dr. Karchesy, a co-inventor, and screened for biocidal activities against nymphal Ixodes scapularis. In this example, 2% acetone solutions (wt./vol.) of the compounds were applied to inner surfaces of 2-dram friction cap vials. Vials and caps were treated then allowed to dry for a minimum of 4 hours before placing 10 nymphs in each container. These same vials were used to challenge additional nymphs and adult I. scapularis ticks and adult Xenopsylla cheopis fleas through five weeks to observe any possible residual activity.
(§5) Numbers in parentheses refer to length of treatment in terms of hours (h) or weeks (wk). Data is presented in terms of number killed/number tested. For test periods longer than 24 hours, the treated vials were allowed to sit for the stated period after drying (72 h, 4 wk, or 5 wk) and each group of arthropods was added to the vials for the final 24 h of the test period.

[2] = tested on: adult Xenopsylla cheopis fleas; experiment: Treated-vial biocidal screening, residual challenge (Example 2); assay type: in vivo; conditions: treated vials sat 5 wk; arthropods added for final 24 h
Procedure: as §4, §5

[3] = tested on: adult I. scapularis ticks; experiment: as above; assay type: in vivo, Ixodes scapularis; conditions: treated vials sat 4 wk; arthropods added for final 24 h
Procedure: as §4, §5

Ixodes scapularis nymphs = experiment: Residual activity, treated vials aged before loading (Example 9); assay type: in vivo
Procedure: as §2, with “acetone. The approximate toxicity of individual compounds was determined with a total of 8 doses ranging from 0.002% to 0.25%.” for “acetone.”, “Entomol. 74:466–69 (1981).” for “Entomol.”
as §3, with “Groups of 10 nymphal I. scapularis and X. cheopis fleas were used in all tests, resulting in a total of 5,240 nymphs and 4,860 fleas exposed to the compounds. The” for “The”

[4] = tested on: Xenopsylla cheopis adults; experiment: as above; assay type: in vivo
Procedure: as §2, with “acetone. The approximate toxicity of individual compounds was determined with a total of 8 doses ranging from 0.002% to 0.25%.” for “acetone.”, “Entomol. 74:466–69 (1981).” for “Entomol.”
as §3, with “Groups of 10 nymphal I. scapularis and X. cheopis fleas were used in all tests, resulting in a total of 5,240 nymphs and 4,860 fleas exposed to the compounds. The” for “The”

Aedes aegypti adults = experiment: Residual activity, treated bottles aged before loading (Example 9); assay type: in vivo
Procedure: as §1

[5] = tested on: ticks, fleas, and mosquitoes; experiment: Residual activity, overall statements for ticks, fleas and mosquitoes (Example 9); conditions: 1 to 4 weeks after treatment
[6] = 24 h exposure, 95% CI in parentheses
[7] = residual activity at 1 week after treatment
[8] = residual activity at 2 weeks after treatment
[9] = residual activity at 4 weeks after treatment
[10] = Aedes aegypti, 24 h, 24 h exposure, 95% CI in parentheses, read-out: LC50
[11] = Aedes aegypti, 24 h, 24 h exposure, 95% CI in parentheses, read-out: LC90 (the source's name)
[12] = Ixodes scapularis, 24 h, 24 h exposure, 95% CI in parentheses, read-out: LC90
[13] = Xenopsylla cheopis, 24 h, 24 h exposure, 95% CI in parentheses, read-out: LC50
[14] = Xenopsylla cheopis, 24 h, 24 h exposure, 95% CI in parentheses, read-out: LC90

Row | SMILES | LC50 (I. scapularis nymphs; Ixodes scapularis, 24 h) [µg/mL] | LC50 (I. scapularis nymphs; [6]) | LC50 (X. cheopis adults; [6]) | LC50 (Ixodes scapularis nymphs; [7]) | LC90 (Ixodes scapularis nymphs; [7]) | LC50 [4, 7] | LC90 [4, 7] | LC50 (Aedes aegypti adults; [7]) | LC90 (Aedes aegypti adults; [7]) | LC50 (Aedes aegypti adults; [8]) | LC90 (Aedes aegypti adults; [8]) | residual activity (in words) [5] | LC50 (Ae. aegypti adults; [10]) [µg/mL] | EC90 (Ae. aegypti adults; [11]) [µg/mL] | LC90 (I. scapularis nymphs; [12]) [µg/mL] | LC50 (X. cheopis adults; [13]) [µg/mL] | LC90 (X. cheopis adults; [14]) [µg/mL] | other results
1 | Cc1ccc(C(C)C)cc1O [Compound 4, Carvacrol] | 68 (≈ 453 µM) |  |  |  |  |  |  |  |  |  |  |  |  |  |  |  |  | LC50 (Ae. aegypti adults; Aedes aegypti, 24 h): 51 µg/mL (≈ 339 µM); EC90 (Ae. aegypti adults; Aedes aegypti, 24 h, read-out: LC90): 140 µg/mL (≈ 932 µM); LC90 (I. scapularis nymphs; Ixodes scapularis, 24 h, read-out: LC90): 140 µg/mL (≈ 932 µM); LC50 (X. cheopis adults; Xenopsylla cheopis, 24 h): 59 µg/mL (≈ 393 µM); LC90 (X. cheopis adults; Xenopsylla cheopis, 24 h, read-out: LC90): 140 µg/mL (≈ 932 µM)
2 | C=C(C)[C@@H]1CCC2=CCC[C@@H](C)[C@]2(C)C1 [Compound 5, Valencene] |  | 0.598 percent concentration, wt:vol | 0.041 (0.034–0.049) percent concentration, wt:vol |  |  |  |  |  |  |  |  |  |  |  |  |  |  | I. scapularis nymphs (24 h), number killed/number tested ([1]; 2% acetone solution (wt./vol.) dried in vials, 24 h): 10/10; I. scapularis nymphs (72 h), number killed/number tested ([1]; treated vials sat 72 h, arthropods added for final 24 h): 0/5; X. cheopis adults (5 wk), number killed/number tested [2]: 0/5; I. scapularis adults (4 wk), number killed/number tested [3]: 0/5; LC50 (Ae. aegypti adults; [6]): 0.015 (0.008–0.029) percent concentration, wt:vol; LC90 (Ae. aegypti adults; [6]): 0.037 (0.031–0.162) percent concentration, wt:vol; LC90 (I. scapularis nymphs; [6]): 44.837 percent concentration, wt:vol; LC90 (X. cheopis adults; [6]): 0.063 (0.052–0.093) percent concentration, wt:vol
3 | C=C(C)[C@@H]1CCC2=CC(=O)C[C@@H](C)[C@]2(C)C1 [Compound 8, Nootkatone] |  | 0.0061 (0.005–0.0072) percent concentration, wt:vol | 0.0029 (0.002–0.0038) percent concentration, wt:vol | 0.025 percent concentration, wt:vol | 0.071 percent concentration, wt:vol | 0.02 (0.016–0.026) percent concentration, wt:vol | 0.053 (0.04–0.082) percent concentration, wt:vol | 0.0065 percent concentration, wt:vol | 0.014 percent concentration, wt:vol | 0.0067 (0.0058– percent concentration, wt:vol | 0.012 (0.01–0.015) percent concentration, wt:vol | considerable biological activity |  |  |  |  |  | LC50 (Ixodes scapularis nymphs; [8]): 0.019 (0.014–0.024) percent concentration, wt:vol; LC90 (Ixodes scapularis nymphs; [8]): 0.056 (0.04–0.094) percent concentration, wt:vol; LC50 (Ixodes scapularis nymphs; [9]): 0.25 percent concentration, wt:vol; LC90 (Ixodes scapularis nymphs; [9]): 0.71 percent concentration, wt:vol; LC50 [4, 8]: 0.018 (0.013–0.024) percent concentration, wt:vol; LC90 [4, 8]: 0.081 (0.054–0.156) percent concentration, wt:vol; LC50 [4, 9]: 0.035 (0.026–0.051) percent concentration, wt:vol; LC90 [4, 9]: 0.161 (0.098–0.387) percent concentration, wt:vol; LC50 (Aedes aegypti adults; [9]): 0.02 percent concentration, wt:vol; LC90 (Aedes aegypti adults; [9]): 0.29 percent concentration, wt:vol; LC50 (X. cheopis adults; 24 h exposure, 95% CI in parentheses, listed as compound 8): 0.0029 percent concentration, wt:vol
4 | C=C(C)[C@@H]1CCC2=CC(=O)C[C@@H](C)[C@]2(C)C1 [Compound 9, Nootkatone] |  | 0.0033 (0.0027–0.004) percent concentration, wt:vol | 0.0066 (0.0046–0.0086) percent concentration, wt:vol | 0.0084 (0.005–0.013) percent concentration, wt:vol | 0.08 (0.045–0.22) percent concentration, wt:vol | 0.043 percent concentration, wt:vol | 0.259 percent concentration, wt:vol | 0.0089 (0.0077–0.01) percent concentration, wt:vol | 0.018 (0.015–0.023) percent concentration, wt:vol | 0.0042 (0.0036– percent concentration, wt:vol | 0.0088 (0.0074–0.011) percent concentration, wt:vol | considerable biological activity |  |  |  |  |  | LC50 (Ixodes scapularis nymphs; [8]): 0.0089 (0.0068–0.012) percent concentration, wt:vol; LC90 (Ixodes scapularis nymphs; [8]): 0.027 (0.02–0.045) percent concentration, wt:vol; LC50 [4, 8]: 0.027 percent concentration, wt:vol; LC90 [4, 8]: 0.085 percent concentration, wt:vol; LC90 [4, 9]: 0.111 (0.08–0.193) percent concentration, wt:vol; LC50 (Aedes aegypti adults; [9]): 0.018 percent concentration, wt:vol; LC90 (Aedes aegypti adults; [9]): 0.036 percent concentration, wt:vol; LC50 (Ae. aegypti adults; [6]): 0.0075 percent concentration, wt:vol
5 | C=C(C=O)C1CCC2=CCC[C@@H](C)[C@]2(C)C1 (stereo partly drawn) [Compound 15, valencene-13-aldehyde] | 59 (≈ 270 µM) |  |  | 0.026 (0.02–0.033) percent concentration, wt:vol | 0.072 (0.052–0.121) percent concentration, wt:vol | 0.059 percent concentration, wt:vol | 0.148 percent concentration, wt:vol | 0.011 (0.0095–0.013) percent concentration, wt:vol | 0.027 (0.022–0.037) percent concentration, wt:vol | 0.014 (0.0074–0.025) percent concentration, wt:vol | 0.037 (0.029–0.127) percent concentration, wt:vol | considerable biological activity | 24 (≈ 110 µM) | 34 (≈ 156 µM) | 170 (≈ 779 µM) | 49 (≈ 224 µM) | 85 (≈ 389 µM) | 
6 | C=C(C)C1CCC23OC2C(=O)C[C@@H](C)[C@]3(C)C1 (stereo partly drawn) [Compound 17, nootkatone-1,10-epoxide] | 200 (≈ 853 µM) |  |  |  |  |  |  |  |  |  |  |  | 2230 (≈ 9520 µM) | 20000 (≈ 85400 µM) | 550 (≈ 2350 µM) | 170 (≈ 725 µM) | 590 (≈ 2520 µM) | 
7 | C[C@@H]1CC(=O)C2OC23CCC(C2(C)CO2)C[C@@]13C (stereo partly drawn) [Compound 18, nootkatone-1,10-11,12-diepoxide] | 610 (≈ 2440 µM) |  |  |  |  |  |  |  |  |  |  |  | 590 (≈ 2360 µM) | 1140 (≈ 4550 µM) | 2450 (≈ 9790 µM) | 640 (≈ 2560 µM) | 4840 (≈ 19300 µM) | 
